Counter-ions that a name gives are not always drawn. Like-named read-outs stand apart in the source and are kept apart here.
Legend:
[1] = Example 13 trial: total and free bupivacaine plasma pharmacokinetics; conditions: human, in vivo
Method: Additionally, alpha 1 acid glycoprotein (AAG) plasma concentrations were measured in these two groups for correlation with free bupivacaine concentrations.
Using non-compartmental methods the following PK parameters were calculated from the plasma concentrations of each compound: area under the plasma concentration vs. time curve until the last measured concentration (AUCt), area under the plasma concentration vs. time curve extrapolated until infinity (AUCinf), the maximum concentration (Cmax), the time of its occurrence (tmax) and the apparent terminal elimination half-life (t1/2). […] The average […] of bupivacaine was approximately […]; free bupivacaine plasma concentrations generally paralleled those of total bupivacaine. There was a large interindividual variability of Cmax of both total and free bupivacaine. […] Note: Table 13.5 presents Geometric mean, ±68th percentile for Cmax rather than absolute min, max.

[2] = test system: patients undergoing elective arthroscopic shoulder surgery; experiment: Example 13 trial: safety; format: in vivo, human; conditions: safety population
Excerpt: Pharmacokinetic/pharmacodynamic (PK/PD) relationships were to be assessed as part of central nervous system (CNS) toxicity monitoring and cardiac monitoring. For patients not selected for PK-profiling, if a cardiac or CNS event occurred that met the criteria for a serious adverse event (SAE) or a severe non-SAE, a blood sample for PK analysis was to be taken as close to the event as possible.
The incidence of adverse events (AEs); the incidence of bupivacaine-related CNS side effects; clinical laboratory tests; vital signs; 12-lead ECGs; and physical examinations.
Evaluation by the investigator of wound healing and tissue conditions at the surgical wound on Days 7 and 14, and at the 6-month follow-up visit. An MRI of the shoulder as well as a functionality assessment of the shoulder using the Constant-Murley score were to be performed at the 6-month follow-up visit.

[3] = test system: subjects undergoing elective outpatient laparoscopic cholecystectomy; experiment: Example 16 trial: pain intensity on movement after laparoscopic cholecystectomy; format: in vivo, human; conditions: Part 2 (N = 148 per group)
Method: The trial included: 1) a randomized, parallel-group, double-blind, placebo-controlled study (Part 1) and a randomized, parallel-group, double-blind, bupivacaine HCl active-controlled study (Part 2).
Part 1: Pain intensity on movement measured at scheduled time points from 0 to 72 hours following test drug administration, adjusted for prior rescue medication use and analyzed by a mixed effect ANOVA model of repeated measures (MMRM).
Part 2: Pain intensity on movement measured at scheduled time points from 0 to 48 hours following test drug administration, adjusted for prior rescue medication use and analyzed by a mixed effect ANOVA model of repeated measures (MMRM).

[4] = test system: patients undergoing laparotomy, laparoscopic cholecystectomy or laparoscopically-assisted colectomy; experiment: Example 17 phase 3 trial: pain intensity and opioid use in general surgical procedures; format: in vivo, human; conditions: for Total Morphine-equivalent Opioid Medication Use, MEDD 0-72 hours, Median (Q1, Q3) / Repeated Measures Pain Intensity on Movement, All Timepoints 0-72 hr, LS Mean (SE): ITT; for Pain Intensity on Movement AUC 0-24 hours, LS Mean (SE) / Pain Intensity on Movement AUC 0-48 hours, LS Mean (SE) / Pain Intensity on Movement AUC 0-72 hours, LS Mean (SE) / Pain Intensity on Movement AUC 24-48 hours, LS Mean (SE) / Pain Intensity on Movement AUC 48-72 hours, LS Mean (SE): Log Pad and Opioid Pain Scores; for Repeated Measures Pain Intensity on Movement, All Timepoints 0-72 hr, LS Mean (SE): LogPad Scores Only
[5] = test system: patients undergoing elective arthroscopic shoulder surgery; experiment: Example 13 trial: pain intensity and opioid rescue after arthroscopic shoulder surgery; format: in vivo, human
Method: Patients were screened 1 to 14 days before surgery at which time informed consent was obtained. Surgery was performed and the trial drug administered on Day 0. The trial was planned to be divided into two sequential cohorts, each with three treatment groups (a, b and c).
All patients received paracetamol (4 grams/day; 2 grams/day for body weight <66 kg for the first 72 hours) as background treatment. In case sufficient pain relief was not obtained, patients were allowed rescue medication in the form of morphine administered intravenously or orally, which consisted of oral morphine 10 mg at 1-hour intervals or, if unable to tolerate orally intake, intravenous (IV) morphine […] at 5-minute intervals. After 72 hours, subjects were allowed paracetamol and oral morphine on an as-needed basis. Patients recorded pain intensity as well as rescue medication in an electronic diary (eDiary).
Primary: The study had two primary endpoints. […] For the primary endpoints to be met, […] of PI on movement compared to placebo as well as superiority in total use of opioid analgesia needed to be shown. PI “on movement” reported on the NRS scale was summarized by treatment group and time, using descriptive statistics for continuous variables.
Time to first opioid rescue medication usage was defined as the duration between time of trial drug administration and the time of first opioid use

[6] = Example 17 trial: plasma total bupivacaine pharmacokinetics; format: in vivo; conditions: human
Method: Plasma PK samples were analyzed for determination of total bupivacaine concentration only and none of the samples were analyzed for determination of free drug concentration.

[7] = test system: patients undergoing general surgical procedures; experiment: Example 17 trial: safety including Holter monitoring; format: in vivo, human; conditions: Safety Population
Excerpt: Patient safety was carefully monitored throughout the trial with traditional assessments of AEs, vital signs, routine laboratory testing, and Holter monitoring (i.e., continuous recording of electrocardiogram) for 3 days after dosing. Special attention was given to cardiovascular and neurological AE, as bupivacaine toxic effects are manifest in those two body systems. In addition, special assessments were done to monitor surgical wound condition and healing over the 30 days of the trial.

[8] = Cohort 2 (Laparoscopic Cholecystectomy)
[9] = LOCF, ITT population, hours post-surgery

CCCCN1CCCCC1C(=O)Nc1c(C)cccc1C (centres unmarked) [bupivacaine HCl, bupivacaine hydrochloride]
Tmax [1]: 1.03 h | t1/2, mean [1]: 6.65 h | tmax median [1]: 1.03 h | half-life ([1]; t1/2, mean): 5.93 h | All TEAEs, % of patients [2]: 37.9% | All TEAEs, n (patients with at least one event) [2]: 11 | TEAE Alanine aminotransferase increased, % of patients [2]: 0.0% | TEAE Cardiac disorders, % of patients [2]: 10.3% | TEAE Gastrointestinal disorders, % of patients [2]: 3.4% | TEAE General disorders and administration site conditions, % of patients [2]: 0.0% | TEAE Headache, % of patients [2]: 3.4% | TEAE Injury, poisoning and procedural complications, % of patients [2]: 0.0% | TEAE Investigations, % of patients [2]: 6.9% | TEAE Musculoskeletal and connective tissue disorders, % of patients [2]: 6.9% | TEAE Musculoskeletal pain, % of patients [2]: 6.9% | TEAE Nausea, % of patients [2]: 3.4% | TEAE Nervous system disorders, % of patients [2]: 13.8% | TEAE Respiratory, thoracic and mediastinal disorders, % of patients [2]: 6.9% | TEAE Skin and subcutaneous tissue disorders, % of patients [2]: 6.9% | Pain intensity on movement 0 to 48 hours, Mean [3]: 5.87 | Total Morphine-equivalent Opioid Medication Use, MEDD 0-72 hours, Median (Q1, Q3) ([4]; Cohort 1 (Laparotomy)): 63.0 (34.0, 152.0) mg | Pain Intensity on Movement AUC 0-24 hours, LS Mean (SE) ([4]; Cohort 1 (Laparotomy)): 6.3 (0.48) | Pain Intensity on Movement AUC 0-48 hours, LS Mean (SE) ([4]; Cohort 1 (Laparotomy)): 6.0 (0.49) | Pain Intensity on Movement AUC 0-72 hours, LS Mean (SE) ([4]; Cohort 1 (Laparotomy)): 5.8 (0.51) | Pain Intensity on Movement AUC 24-48 hours, LS Mean (SE) ([4]; Cohort 1 (Laparotomy)): 5.7 (0.56) | Pain Intensity on Movement AUC 48-72 hours, LS Mean (SE) ([4]; Cohort 1 (Laparotomy)): 5.3 (0.60) | Repeated Measures Pain Intensity on Movement, All Timepoints 0-72 hr, LS Mean (SE) ([4]; Cohort 1 (Laparotomy)): 5.9 (0.35) | Total Morphine-equivalent Opioid Medication Use, MEDD 0-72 hours, Median (Q1, Q3) [4, 8]: 22.5 (12.5, 34.5) mg | Pain Intensity on Movement AUC 0-24 hours, LS Mean (SE) [4, 8]: 4.8 (0.47) | Pain Intensity on Movement AUC 0-48 hours, LS Mean (SE) [4, 8]: 4.4 (0.45) | Pain Intensity on Movement AUC 0-72 hours, LS Mean (SE) [4, 8]: 3.9 (0.45) | Pain Intensity on Movement AUC 24-48 hours, LS Mean (SE) [4, 8]: 4.0 (0.22) | Pain Intensity on Movement AUC 48-72 hours, LS Mean (SE) [4, 8]: 2.8 (0.52) | Repeated Measures Pain Intensity on Movement, All Timepoints 0-72 hr, LS Mean (SE) [4, 8]: 3.6 (0.32) | Total IV morphine equivalent dose of opioid rescue medication, Median ([5]; 0-72 hours after surgery, ITT population): 8.0 mg | median cumulative IV morphine-equivalent dose of opioids 0 to 72 hours ([5]; Formulation A 5 mL (660 mg) or bupivacaine HCl 20 mL (50 mg) subacromial, ITT): 8.0 mg | Pain intensity at rest normalized AUC 1-72 hours, Mean (SD) ([5]; ITT population): 2.33 (1.76) | Time to first use of opioid rescue medication, Median (95% CI) ([5]; ITT population, Kaplan-Meier estimates): 1.4 (1.0, 4.1) hours | Pain intensity on movement, mean AUC (1-24) [5, 9]: 5.82 | Pain intensity on movement, mean AUC (1-48) [5, 9]: 5.56 | Pain intensity on movement, mean AUC (1-72) [5, 9]: 5.16 | Pain intensity on movement, mean AUC (24-48) [5, 9]: 5.31 | Pain intensity on movement, mean AUC (48-72) [5, 9]: 4.38 | median time to first use of opioid rescue medication ([5]; single subacromial dose, ITT): 1.4 h | percentage of subjects opioid free during 72 hours after surgery ([5]; single subacromial dose, ITT): 27.6% | Cmax ([6]; Cohort 1): 251 ng/mL | AUC(0-t) ([6]; Cohort 1, read-out: AUC(0-72), mean): 8460 ng·h/mL | AUC(0-t) ([6]; Cohort 1, read-out: AUC(0-last), mean): 7780 ng·h/mL | Tmax ([6]; Cohort 1, read-out: Tmax, median): 16 h | Cmax ([6]; Cohort 2): 371 ng/mL | AUC(0-t) ([6]; Cohort 2, read-out: AUC(0-72), mean): 6770 ng·h/mL | AUC(0-t) ([6]; Cohort 2, read-out: AUC(0-last), mean): 6620 ng·h/mL | Tmax ([6]; Cohort 2, read-out: Tmax, median): 1 h | At Least One Cardiovascular TEAE ([7]; Cohort 1): 7 (39%) | At Least One Neurological TEAE ([7]; Cohort 1): 4 (22%) | At Least One Non-Opioid TEAE ([7]; Cohort 1): 17 (94%) | At Least One Serious TEAE ([7]; Cohort 1): 4 (22%) | At Least One Serious and Related TEAE ([7]; Cohort 1): 0 | At Least One Severe and Related TEAE ([7]; Cohort 1): 0 | At Least One TEAE ([7]; Cohort 1): 17 (94%) | At Least One TEAE Leading to Study Discontinuation ([7]; Cohort 1): 0 | At Least One Wound Infection REAE ([7]; Cohort 1): 2 (11%) | Deaths ([7]; Cohort 1): 0 | TEAE Maximum Relationship to Study Drug: Not Related ([7]; Cohort 1): 13 (72%) | TEAE Maximum Relationship to Study Drug: Related ([7]; Cohort 1): 4 (22%) | TEAE Maximum Severity: Mild ([7]; Cohort 1): 2 (11%) | TEAE Maximum Severity: Moderate ([7]; Cohort 1): 11 (61%) | TEAE Maximum Severity: Severe ([7]; Cohort 1): 4 (22%) | At Least One Cardiovascular TEAE ([7]; Cohort 2): 2 (10%) | At Least One Neurological TEAE ([7]; Cohort 2): 10 (50%) | At Least One Non-Opioid TEAE ([7]; Cohort 2): 19 (95%) | At Least One Serious TEAE ([7]; Cohort 2): 1 (5%) | At Least One Serious and Related TEAE ([7]; Cohort 2): 0 | At Least One Severe and Related TEAE ([7]; Cohort 2): 1 (5%) | At Least One TEAE ([7]; Cohort 2): 20 (100%) | At Least One TEAE Leading to Study Discontinuation ([7]; Cohort 2): 1 (5%) | At Least One Wound Infection REAE ([7]; Cohort 2): 1 (5%) | Deaths ([7]; Cohort 2): 0 | TEAE Maximum Relationship to Study Drug: Not Related ([7]; Cohort 2): 10 (50%) | TEAE Maximum Relationship to Study Drug: Related ([7]; Cohort 2): 10 (50%) | TEAE Maximum Severity: Mild ([7]; Cohort 2): 2 (10%) | TEAE Maximum Severity: Moderate ([7]; Cohort 2): 13 (65%) | TEAE Maximum Severity: Severe ([7]; Cohort 2): 5 (25%)

— patent US11400019B2, “Sustained release drug delivery systems with reduced impurities and related methods” (DURECT CORPORATION, priority 2020, dated 2022)
